What was measured:
[1] = system: human liver cancer cell line 7402; assay: G2/M arrest by flow cytometry, 7402; format: cell-based; settings: 7402, 40 μmol/L, 24 hrs
Procedure: By way of example, human liver cancer cell lines HepG2 and 7402, human ovarian cancer cell lines HOC8 and A2780, human glioma cell line BT325, lung cancer cell line A549, brain metastatic lung cancer cell line BT72 and prostate cancer cell line IB-4 were used to investigate the G2/M arresting of solid tumor cells of different tissue origins by 2-bromo-isovanillin as measured by the ratio of cells at G2/M phase. Specifically, the cancer cells were divided into two groups, and were treated with 0 or 40 μmol/L 2-bromo-isovanillin for 24 hours. Then the cells were harvested and analyzed for changes in cell cycle and cell apoptosis by flow cytometry.

[2] = system: spindle structure in HepG2 cells; assay: Spindle structure by immunofluorescent labeling of tubulin, HepG2; format: cell-based, human; settings: HepG2, 40 μmol/L, 24 hrs
Text: 3. […] The influence of 2-bromo-isovanillin on the spindle structure in HepG2 cells was further studied by means of in situ immunofluorescence hybridization by immunofluorescent labeling of tubulin. […] The cells with impaired spindle function could not undergo normal division, thereby leading to rapid cell death, i.e., mitotic catastrophe.

[3] = system: normal human hepatic cell line LO2; assay: Cell cycle profile and apoptosis by flow cytometry, LO2; format: cell-based; settings: LO2, 40 μmol/L, 24 hrs
Procedure: By way of example, human liver cancer cell line HepG2 and normal human hepatic cell line LO2 were used to study the inhibitory effect of 2-bromo-isovanillin on the growth of liver cancer cells and normal cells by clonogenic assay. Specifically, five groups were formed according to the drug concentration, and the liver cancer cells HepG2 and normal hepatic cells LO2 were respectively treated with 5, 10, 20, 40 and 80 μmol/L 2-bromo-isovanillin for 24 hrs. Then cell survival was measured by clonogenic assay (FIG. 8). In addition, the cell cycle profile and apoptotic effect were compared using flow cytometry.

Structure (SMILES): COc1ccc(C=O)c(Br)c1O [2-bromo-isovanillin, 2-bromo-3-hydroxy-4-methoxybenzaldehyde]
- cell cycle effect [1]: arrested at G2/M phase
- M phase cells with multiple centrosomes or destroyed spindle structure [2]: more than 65%
- ratio of cells at mitotic phase [2]: significantly increased
- G2/M arrest and apoptosis in normal hepatic cells [3]: did not result in G2/M arrest or significant cell apoptosis
